The values below are quoted from earlier work in Sander's compilation of Henry's law constants.

A short description of data set [1]: Henry solubility constant Hcp at 298.15 K (mol/(m3 Pa)). Particulars: cited value.
Data set [2] is described as follows: Henry solubility constant Hcp at 293 K (mol/(m3 Pa)). The following applies: cited value.
The mark [3] stands for this setting: reference: Burkholder et al. (2015).
The mark [4] stands for this setting: reference: Burkholder et al. (2019).
Where [5] appears, read: reference: Sander et al. (2006).
The mark [6] stands for this setting: reference: Sander et al. (2011).
The mark [7] stands for this setting: reference: Fogg and Sangster (2003).
The mark [8] stands for this setting: reference: Gaffney and Senum (1984).
Where [9] appears, read: reference: Barcelo and Hennion (1997).
Setting [10] is: reference: Mackay et al. (1995).
[11] abbreviates: reference: Wania and Dugani (2003).

Where “and” joins values, the source holds several entries; their conditions need not be identical. Equal values may be shown once.

In the case of `C#C` [ethyne], the “Henry solubility constant Hcp” value in data set [1] (setting [3]) was 0.00041; in data set [1] (setting [4]), 0.00041; in data set [1] (reference: Deno and Berkheimer (1960)) it was 0.00041; in data set [1] (reference: Fogg et al. (2002)) it was 0.00041; in data set [1] (setting [5]) it was 0.00041; in data set [1] (setting [6]), 0.00041. Moreover, in data set [1] (reference: Schoen (1923)), the “Henry solubility constant Hcp” value was 0.00041. Moreover, the “Henry solubility constant Hcp at 293 K” value in data set [2] (reference: Vtovec (1968)) was 0.00044.
`CSC` [dimethyl sulfide]: the “Henry solubility constant Hcp” value in data set [1] (reference: Brockbank (2013)) is 0.0054; in data set [1] (setting [3]), 0.0053; in data set [1] (setting [4]) it was 0.0053; in data set [1] (setting [7]), 0.0052; in data set [1] (setting [8]), 0.0061; in data set [1] (setting [5]), 0.0053. Further, in data set [1] (setting [6]), the “Henry solubility constant Hcp” value is 0.0053. Further, in data set [2] (reference: Vitenberg et al. (1975)), the “Henry solubility constant Hcp at 293 K” value is 0.007.
Consider `Cc1cc(C)nc(Nc2ccccc2)n1` [pyrimethanil], for which, in data set [2] (reference: Tomlin (1998)), the “Henry solubility constant Hcp at 293 K” value is 280.
With `CC(Cc1ccc(C(C)(C)C)cc1)CN1CCCCC1` (stereo unspecified) [fenpropidin], the “Henry solubility constant Hcp at 293 K” value in data set [2] (reference: Tomlin (1998)) is 0.099.
With `O=O` [oxygen], the “Henry solubility constant Hcp” value in data set [1] (reference: Battino (1981)) is 1.3e-05; in data set [1] (reference: Battino et al. (1983)) it was 1.3e-05; in data set [1] (setting [3]), 1.3e-05; in data set [1] (setting [4]) it was 1.3e-05; in data set [1] (reference: Himmelblau (1960)), 1.2e-05; in data set [1] (setting [5]) it was 1.3e-05. The “Henry solubility constant Hcp” value in data set [1] (setting [6]) was 1.3e-05. The “Henry solubility constant Hcp at 293 K” value in data set [2] (reference: Nunn (1958)) is 1.4e-05.
As for `[Hg]` [mercury], the “Henry solubility constant Hcp” value in data set [1] (setting [3]) was 0.0013; in data set [1] (setting [4]) it was 0.0013; in data set [1] (reference: Clever (1987)) it was 0.0012; in data set [1] (reference: Clever et al. (1985)), 0.0011; in data set [1] (reference: Shon et al. (2005)), 0.0012. The “Henry solubility constant Hcp at 293 K” value in data set [2] (reference: WHO (1990)) is 0.0014.
Turning to `BrBr` [bromine (molecular)], the “Henry solubility constant Hcp” value is 0.0072 in data set [1] (setting [3]); 0.0072 in data set [1] (setting [4]); 0.0079 in data set [1] (reference: Jenkins and King (1965)); 0.0072 in data set [1] (setting [5]); 0.0072 in data set [1] (setting [6]). Moreover, in data set [2] (reference: Giona et al. (1969)), the “Henry solubility constant Hcp at 293 K” value is 0.0092.
Take `ClCC(Cl)(Cl)Cl` [1,1,1,2-tetrachloroethane]: the “Henry solubility constant Hcp” value in data set [1] (reference: Brockbank (2013)), in data set [1] (setting [3]) and in data set [1] (setting [4]) was 0.0042 each time.
On to `Cc1ccc(C)c(C)c1C` [1,2,3,4-tetramethylbenzene], for which the “Henry solubility constant Hcp” value in data set [1] (reference: Brockbank (2013)) was 0.0029.
Take `CCCCCCC` [heptane]: the “Henry solubility constant Hcp” value in data set [1] (reference: Brockbank (2013)) was 4.4e-06.
`O=C(O)CCCC(=O)O` [pentanedioic acid]: the “Henry solubility constant Hcp” value in data set [1] (setting [3]) and in data set [1] (setting [4]) was 3.8e+07 each time.
As to `O=[N+]([O-])c1ccccc1O` [2-nitrophenol], the “Henry solubility constant Hcp” value in data set [1] (reference: Goldstein (1982)) was 0.69.
Take `C#CCCCCCC` [1-octyne]: the “Henry solubility constant Hcp” value in data set [1] (reference: Brockbank (2013)) was 0.00012.
Take `CCNc1nc(NC(C)(C)C)nc(SC)n1` [terbutryn]: the “Henry solubility constant Hcp” value in data set [1] (setting [9]) is 7.6.
On to `CCCCCCC(C)O` (stereo unspecified) [2-octanol], for which the “Henry solubility constant Hcp” value in data set [1] (reference: Brockbank (2013)) was 0.27.
As to `Cc1nnc(-c2ccccc2)c(=O)n1N` [metamitron], the “Henry solubility constant Hcp” value in data set [1] (setting [9]) was 1e+06.
For `CCCCCCCCN` [1-octanamine], in data set [1] (reference: Brockbank (2013)), the “Henry solubility constant Hcp” value was 0.22.
Regarding `CCCc1ccccc1` [propylbenzene], the “Henry solubility constant Hcp” value in data set [1] (reference: Brockbank (2013)) was 0.00091.
In the case of `CCCCCC(C)=O` [2-heptanone], in data set [1] (reference: Brockbank (2013)), the “Henry solubility constant Hcp” value is 0.068.
Take `CCSSCC` [diethyl disulfide]: the “Henry solubility constant Hcp” value in data set [1] (setting [3]) and in data set [1] (setting [4]) was 0.0037 throughout.
`O=[N+]([O-])c1ccccc1` [nitrobenzene]: the “Henry solubility constant Hcp” value was 0.47 in data set [1] (reference: Brockbank (2013)), 0.47 in data set [1] (reference: Goldstein (1982)) and 0.75 in data set [1] (setting [10]).
With `ClCCOCOCCCl` [bis-(2-chloroethoxy)-methane], in data set [1] (reference: Goldstein (1982)), the “Henry solubility constant Hcp” value was 8.8 and 26.
In the case of `CCCBr` [1-bromopropane], in data set [1] (reference: Brockbank (2013)), the “Henry solubility constant Hcp” value was 0.0011.
In the case of `Nc1ccc(-c2ccc(N)c(Cl)c2)cc1Cl` [3,3'-dichloro-(1,1'-biphenyl)-4,4'-diamine], the “Henry solubility constant Hcp” value in data set [1] (setting [10]) is 12.
As to `ClNCl` [dichloramine], the “Henry solubility constant Hcp” value in data set [1] (setting [3]), in data set [1] (setting [4]), in data set [1] (setting [5]) and in data set [1] (setting [6]) was 0.29 in each case.
Turning to `CCCCc1ccccc1` [butylbenzene], the “Henry solubility constant Hcp” value in data set [1] (reference: Brockbank (2013)) was 0.00071.
In the case of `CC=C(C)C` [2-methyl-2-butene], the “Henry solubility constant Hcp” value in data set [1] (reference: Brockbank (2013)) is 5.7e-05.
With `Nc1c(Cl)c(Cl)nc(C(=O)O)c1Cl` [picloram], the “Henry solubility constant Hcp” value in data set [1] (setting [9]) is 290.
With `CCCOCCC` [dipropyl ether], the “Henry solubility constant Hcp” value in data set [1] (reference: Brockbank (2013)) is 0.0029.
Turning to `Brc1cc(Br)c(Oc2cc(Br)c(Br)cc2Br)cc1Br` [2,2',4,4',5,5'-hexabromodiphenyl ether], the “Henry solubility constant Hcp” value in data set [1] (setting [11]) is 2.9.
Turning to `C1CCOCC1` [tetrahydropyran], the “Henry solubility constant Hcp” value in data set [1] (reference: Brockbank (2013)) is 0.081.
`Cc1cccc(C=O)c1` [3-methylbenzaldehyde]: in data set [1] (reference: Brockbank (2013)), the “Henry solubility constant Hcp” value is 0.35.
Consider `CCCCCC#N` [hexanenitrile], for which the “Henry solubility constant Hcp” value in data set [1] (reference: Plyasunov et al. (2006)) was 0.12.
Take `CCCCOCC` [1-ethoxy-butane]: the “Henry solubility constant Hcp” value in data set [1] (reference: Brockbank (2013)) was 0.0076.
With `C/C=C\CCCC` [cis-2-heptene], the “Henry solubility constant Hcp” value in data set [1] (reference: Brockbank (2013)) was 2.4e-05.
Turning to `Clc1ccc2ccccc2c1` [2-chloronaphthalene], the “Henry solubility constant Hcp” value in data set [1] (reference: Goldstein (1982)) is 0.016.
Take `CC(C)S` [2-propanethiol]: the “Henry solubility constant Hcp” value in data set [1] (reference: Brockbank (2013)) is 0.0013.
As to `Nc1ccc(Cl)cc1` [1-amino-4-chlorobenzene], the “Henry solubility constant Hcp” value in data set [1] (reference: Howard (1989)) is 0.92.
`Nc1ccccc1` [aminobenzene]: the “Henry solubility constant Hcp” value in data set [1] (reference: Brockbank (2013)) was 4.9.
Take `CCS` [ethanethiol]: the “Henry solubility constant Hcp” value in data set [1] (setting [3]), in data set [1] (setting [4]), in data set [1] (setting [5]) and in data set [1] (setting [6]) was 0.0028 in each case.
As for `CCOC(=O)COc1cc(-c2nn(C)c(OC(F)F)c2Cl)c(F)cc1Cl` [pyraflufen-ethyl], the “Henry solubility constant Hcp” value in data set [1] (reference: MacBean (2012b)) is 12000.
As for `c1ccc2c(c1)-c1cccc3cccc-2c13` [benzo[jk]fluorene], the “Henry solubility constant Hcp” value in data set [1] (reference: Brockbank (2013)) is 0.7; in data set [1] (setting [7]), 0.54; in data set [1] (reference: Petrasek et al. (1983)), 0.99.
`c1ccc(CCc2ccccc2)cc1` [1,2-diphenylethane]: the “Henry solubility constant Hcp” value in data set [1] (reference: Mackay et al. (1992b)) is 0.059.
On to `CCCCCOC=O` [pentyl methanoate], for which the “Henry solubility constant Hcp” value in data set [1] (reference: Brockbank (2013)) is 0.017.
On to `CCCCNCCCC` [dibutylamine], for which the “Henry solubility constant Hcp” value in data set [1] (reference: Brockbank (2013)) is 0.13.
`C#CCCCC` [1-hexyne]: the “Henry solubility constant Hcp” value in data set [1] (reference: Brockbank (2013)) is 0.00026.
For `Brc1ccc(Oc2ccc(Br)cc2)cc1` [4,4'-dibromodiphenyl ether], the “Henry solubility constant Hcp” value in data set [1] (setting [11]) is 0.24.
Take `Cc1ccc(O)cc1` [1-hydroxy-4-methylbenzene]: the “Henry solubility constant Hcp” value in data set [1] (reference: Brockbank (2013)) is 13; in data set [1] (setting [8]) it was 9.9; in data set [1] (reference: Howard (1989)) it was 10.
Turning to `CCOCCOCC` [1,2-diethoxyethane], in data set [1] (reference: Howard and Meylan (1997)), the “Henry solubility constant Hcp” value is 0.12.
